Measurements as given in patent US10857167B2, “Use of oligosaccharide compositions to enhance weight gain” (Children's Hospital Medical Center, priority 2015, dated 2020).

Test system: distal small bowel gene expression
Experiment: RNA sequencing / transcriptional analysis of small bowel 56 days after ICR (2′-FL signature response)
Type: in vivo, mouse
Excerpt: Luminal small bowel contents were expressed into AllProtect Tissue Reagent (Qiagen Inc, CA). Bacterial DNA was extracted using the AllPrep DNA/RNA Mini Kit (Qiagen Inc, CA), according to kit instructions and prior to sequencing (described below). Small bowel tissue samples for RNA were placed into RNA Later (Life Technologies, NY). RNA extraction was accomplished following Qiagen RNeasy Plus Kit instruction (Qiagen Inc, CA). All nucleic acid samples were then stored at -80 Celsius until sequenced (described below). Transcriptional analysis was carried out on resected and harvested small bowel samples obtained from operated mice taken to 8 weeks. Murine RNA sequencing libraries were prepared from approximately 1.5 μg RNA using the TruSeq RNA Sample Preparation Kit (Illumina, Calif.) and sequenced using the HiSeq 2000 Sequencing System (Illumina, Calif.) with single-end 50 bp reads. Following removal of primers and barcodes, sequences were aligned to the mm10 genome using reference annotations from UCSC (Rosenbloom et al. (2015) Nucleic acids research 43: […]-681) (n=36,186 entities). Aligned reads were quantified and used to compute reads per kilobase per million mapped reads (RPKM); raw counts were then normalized using the DESeq algorithm and each harvested sample was baselined to its own resected sample. A filter was applied to the data, requiring at least three reads in all samples of at least one of the four experimental conditions (n=14,489 entities). The data discussed in this publication have been deposited in NCBI's Gene Expression Omnibus and are accessible through NCBI Gene Expression Omnibus (GEO) Series accession number GSE72590. Edgar et al. (2002) Nucleic acids research 30: 207-210. In order to characterize the impact of 2'-FL supplementation while accounting for the effect of ileoecal resection, a t-test was applied between resected and harvested samples within control and experimental animals. Significance was set at a p-value of ≤0.05 and a fold change of 3, which generated 2,576 differentially regulated entities across two comparisons. Gene set unions and intersections of the control and experimental gene sets were identified through Venn diagrams. From the master list, the gene list specific to animals supplemented with 2'-FL were removed in order to identify genes differentially regulated only by ICR (n=546 entities); this gene set characterizes the adaptive response. Further, the 2'-FL response (n=2,030 entities) was identified by removing the adaptive response signature described above from the master list, leaving only genes regulated by 2'-FL supplementation after ICR which were not found in the non-supplemented adaptive response. Heatmaps were generated using hierarchical clustering with the Pearson's Centered distance metric and the average linkage rule; both entities and samples were clustered. All genomic analyses described above were performed in Strand NGS (Strand Life Sciences, CA). Gene list functional enrichment was initially discovered using ToppFun, a member of the ToppGene Suite. Chen et al. (2009) Nucleic acids research 37: […]-311. No statistical correction was selected. Gene lists were further analyzed using ClueGO, a plugin for Cytoscape designed to decipher functionally grouped gene ontology and pathway annotation networks. Bindea et al. (2009) Bioinformatics 25: 1091-1093. At the time of data analysis, the annotation files were updated from sources to Jan. 1, 2015. “GO Term Fusion” was enabled to manage ontologic term redundancy and network specificity was set to medium. Results were restricted to pathways with p≤0.05 using Benjamini-Hochberg correction and Kappa scoring was set to 0.4. Biocyc annotations were assigned a rectangle, gene ontology biologic processes were assigned an ellipse, and […] annotations were assigned a diamond shape. No meaning was assigned to size or color. […]

[1] = 2′-FL signature response, harvested vs resected small bowel, 8 weeks

What does the source list for `C[C@@H]1O[C@@H](O[C@H]2[C@H](O[C@H]3[C@H](O)[C@@H](O)C(O)O[C@@H]3CO)O[C@H](CO)[C@H](O)[C@@H]2O)[C@@H](O)[C@H](O)[C@@H]1O` (stereo partly drawn) [2′-FL, 2′-fucosyllactose]?
Fgf15 fold change (FC) [1]: −64.6; Fmr1nb fold change (FC) [1]: 12.7; Hemt1 fold change (FC) [1]: 15.4; Irs2 fold change (FC) [1]: −43.6; Map3k12 fold change (FC) [1]: 16.2; Mcpt2 fold change (FC) [1]: 13.4; P2ry4 fold change (FC) [1]: −22.2; Rnf150 fold change (FC) [1]: −20.4; Tmem202 fold change (FC) [1]: 18.0; Ttc28 fold change (FC) [1]: −24.2; Fold Change (Pre- to Post-op) (0610040B10Rik): 4.168; Fold Change (Pre- to Post-op) (1700019L03Rik): 4.251; Fold Change (Pre- to Post-op) (1700020N01Rik): 4.446; Fold Change (Pre- to Post-op) (1810011O10Rik): 4.443; Fold Change (Pre- to Post-op) (1810059H22Rik): 4.23; Fold Change (Pre- to Post-op) (2010308F09Rik): 14.34; Fold Change (Pre- to Post-op) (3300005D01Rik): 4.41; Fold Change (Pre- to Post-op) (9430038I01Rik): 6.474; Fold Change (Pre- to Post-op) (Atp5j2): 4.445; Fold Change (Pre- to Post-op) (Atpif1): 4.145; Fold Change (Pre- to Post-op) (Bambi-ps1): 4.353; Fold Change (Pre- to Post-op) (Casq1): 4.38; Fold Change (Pre- to Post-op) (Cd320): 4.215; Fold Change (Pre- to Post-op) (Coa4): 4.375; Fold Change (Pre- to Post-op) (Cox7a1): 6.411; Fold Change (Pre- to Post-op) (Dgcr6): 4.237; Fold Change (Pre- to Post-op) (Dnah2): 4.392; Fold Change (Pre- to Post-op) (Dynlt1b): 4.376; Fold Change (Pre- to Post-op) (Dynlt1c): 4.148; Fold Change (Pre- to Post-op) (Elof1): 4.343; Fold Change (Pre- to Post-op) (Fam216a): 4.147; Fold Change (Pre- to Post-op) (Gm5485): 4.139; Fold Change (Pre- to Post-op) (Gm6251): 4.383; Fold Change (Pre- to Post-op) (Gm8274): 4.331; Fold Change (Pre- to Post-op) (Gm10433): 4.377; Fold Change (Pre- to Post-op) (Gm10451): 4.182; Fold Change (Pre- to Post-op) (Hemt1): 15.36; Fold Change (Pre- to Post-op) (Hint1): 4.482; Fold Change (Pre- to Post-op) (Hscb): 4.227; Fold Change (Pre- to Post-op) (Hspb2): 4.189; Fold Change (Pre- to Post-op) (Ift20): 4.337; Fold Change (Pre- to Post-op) (Med11): 4.235; Fold Change (Pre- to Post-op) (Mpc2): 4.128; Fold Change (Pre- to Post-op) (Ndufa7): 4.362; Fold Change (Pre- to Post-op) (Ndufaf5): 4.338; Fold Change (Pre- to Post-op) (Ndufb7): 4.217; Fold Change (Pre- to Post-op) (Oaz1): 4.347; Fold Change (Pre- to Post-op) (Ormdl1): 4.184; Fold Change (Pre- to Post-op) (Pstk): 4.142; Fold Change (Pre- to Post-op) (Rabl5): 4.448; Fold Change (Pre- to Post-op) (Rbp1): 4.364; Fold Change (Pre- to Post-op) (Rilpl2): 4.235; Fold Change (Pre- to Post-op) (Rpl34): 4.37; Fold Change (Pre- to Post-op) (Rps15a-ps4): 4.372; Fold Change (Pre- to Post-op) (Rps24): 4.131; Fold Change (Pre- to Post-op) (Rps25): 4.218; Fold Change (Pre- to Post-op) (S100a6): 4.237; Fold Change (Pre- to Post-op) (Sec22a): 4.221; Fold Change (Pre- to Post-op) (Sh2d1b1): 4.118; Fold Change (Pre- to Post-op) (Smim4): 4.229; Fold Change (Pre- to Post-op) (Smim6): 4.424; Fold Change (Pre- to Post-op) (Tm6sf1): 4.173; Fold Change (Pre- to Post-op) (Tnfsf11): 4.335; Fold Change (Pre- to Post-op) (Wfdc17): 4.382; Fold Change (Pre- to Post-op) (Zfp433): 4.119; Fold Change (Pre- to Post-op) (Zswim7): 4.475; Fold Change (Pre- to Post-op) (gene AI414108): −9.671; Fold Change (Pre- to Post-op) (gene Agap2): −9.801; Fold Change (Pre- to Post-op) (gene Ankrd52): −10.58; Fold Change (Pre- to Post-op) (gene Apba1): −18.88; Fold Change (Pre- to Post-op) (gene Atp1a2): −18.47; Fold Change (Pre- to Post-op) (gene Atp1b2): −18.71; Fold Change (Pre- to Post-op) (gene Bcl9l): −10.08; Fold Change (Pre- to Post-op) (gene Car3): −9.901; Fold Change (Pre- to Post-op) (gene Chd7): −11.26; Fold Change (Pre- to Post-op) (gene D830031N03Rik): −15.57; Fold Change (Pre- to Post-op) (gene Ebf1): −10.39; Fold Change (Pre- to Post-op) (gene Fgf15): −64.61; Fold Change (Pre- to Post-op) (gene Flt1): −15.79; Fold Change (Pre- to Post-op) (gene Fscn1): −10.73; Fold Change (Pre- to Post-op) (gene Gltscr1): −13.3; Fold Change (Pre- to Post-op) (gene Irs2): −43.6; Fold Change (Pre- to Post-op) (gene Ldoc1l): −10.25; Fold Change (Pre- to Post-op) (gene Leprel1): −9.903; Fold Change (Pre- to Post-op) (gene Lyst): −9.938; Fold Change (Pre- to Post-op) (gene Nav2): −12.39; Fold Change (Pre- to Post-op) (gene Nfix): −16.561; Fold Change (Pre- to Post-op) (gene Nos1ap): −10.38; Fold Change (Pre- to Post-op) (gene P2ry4): −22.22; Fold Change (Pre- to Post-op) (gene Parvb): −9.684; Fold Change (Pre- to Post-op) (gene Peg3): −15.37; Fold Change (Pre- to Post-op) (gene Plin1): −16.34; Fold Change (Pre- to Post-op) (gene Polr2a): −18.45; Fold Change (Pre- to Post-op) (gene Ptpru): −10.01; Fold Change (Pre- to Post-op) (gene Rgs9): −9.821; Fold Change (Pre- to Post-op) (gene Rnf150): −20.41; Fold Change (Pre- to Post-op) (gene Scd1): −20.28; Fold Change (Pre- to Post-op) (gene Sema3g): −18.02; Fold Change (Pre- to Post-op) (gene Shank3): −15.22; Fold Change (Pre- to Post-op) (gene Soga1): −14.4; Fold Change (Pre- to Post-op) (gene Spen): −14.44; Fold Change (Pre- to Post-op) (gene Tenm3): −14.72; Fold Change (Pre- to Post-op) (gene Tiam1): −15.28; Fold Change (Pre- to Post-op) (gene Tmem151a): −10.06; Fold Change (Pre- to Post-op) (gene Tomm6os): −12.41; Fold Change (Pre- to Post-op) (gene Trerf1): −9.926; Fold Change (Pre- to Post-op) (gene Trim56): −9.711; Fold Change (Pre- to Post-op) (gene Ttc28): −24.22; Fold Change (Pre- to Post-op) (gene Zbed6): −9.794; Fold Change (Pre- to Post-op) (gene Zfp609): −11.22; number of downregulated entities of the 2′-FL signature response (small bowel 56 days after ICR): 1,247
